Laboratory results: patent publication US9668951B2, “Pharmaceutical compositions comprising renewably-based biodegradable 1,3-propanediol” (DuPont Tate & Lyle Bio Products Company, LLC, priority 2006, dated 2017)

Columns and labels:
[1] = test system: human skin; experiment: second human skin patch test; type: in vivo
Excerpt: (§1) Based on these studies PDO is not expected to be a skin irritant or sensitizer in humans.

[2] = test system: human skin; experiment: human skin patch test, 5, 25 and 50% (induction and challenge phases); type: in vivo; settings: diluted with D.I. water to 5%, 105 panelists completed
Excerpt: as §1
The purpose of this study was to determine the potential of biologically-derived 1,3-propanediol, diluted to concentrations of 5%, 25%, and 50%, to cause irritation or delayed contact hypersensitivity in humans. The method employed in carrying out this test, described below, was similar to that described in “Appraisal of the Safety of Chemicals in Foods, Drugs and Cosmetics” by J. H. Drake and published by the Association of Food and Drug Officials of the United States, incorporated herein by reference.
Test Panel: The test involved the application of the test article to the upper arms of a group of 112 volunteer panelists. The panelists ranged from 16 to 71 years of age. One hundred and five panelists completed the study. Prior to the initiation of the study, all panelists were in good general health and free of any visible skin disease or anomaly in the area to be patched. Each panelist was required to read, understand and sign an informed consent statement. […]

| SMILES | dermal irritation or sensitization reactions ([1]; 25, 50, and 75% PDO at pH 7, or 75% PDO at pH 4 and 9) | skin irritant, fatiguing agent, or sensitizing agent [2] | patch test irritation of human skin ([1]; 25, 50, and 75% (pH 7)) |
| --- | --- | --- | --- |
| OCCCO [PDO, 1,3-propanediol] | did not produce any clinically significant dermal irritation or sensitization reactions | not to be a skin irritant, fatiguing agent, or sensitizing agent | – |
| CC(O)CO (stereo not drawn) [propylene glycol, reference compound] | – | – | patch test irritants and cumulative irritants |
